Test results taken from article PMC10287898 (2023).

Key:
Experiment in all cases: ligand-induced self-cleavage, PAGE, SYBR Gold
[1] = system: II-R1-1 (DNA, aptamer) CATGACCACTAGGAGCATCTTTGGCGAGATCGGGAGAATCGGTGGCATTGGTGTCTCCTAGGGGAATAAATCTTTGGGCACCTAGTGGTCATG; conditions: 100 mM NaCl, 40 mM MgCl2, 1 mM ZnCl2; 50 mM HEPES, pH 7.05; apparent, half-maximal cleavage
[2] = system: II-R1-7 (DNA, aptamer) CATGACCACTAGGAGCATCTTTGGCGATCCTCGTCAGATGGTGAAGCAGACGTTTGGCTAGGGGAATAAATCTTTGGGCACCTAGTGGTCATG; conditions: 100 mM NaCl, 40 mM MgCl2, 1 mM ZnCl2; 50 mM HEPES, pH 7.05; apparent, half-maximal cleavage
[3] = system: II-R1-3 (DNA, aptamer) CATGACCACTAGGAGCATCTTTGGCGAGAAGACTCTGGATTCGGGGACCAGTTGCTGCTAGGGGAATAAATCTTTGGGCACCTAGTGGTCATG; conditions: 100 mM NaCl, 40 mM MgCl2, 1 mM ZnCl2, 50 mM HEPES, pH 7.05; for KD: apparent, half-maximal cleavage, 0.1-100 μM ligand; for ligand-induced cleavage: 30 min

N[C@@H](Cc1ccccc1)C(=O)O
KD [1]: 20.3 ± 1.6 µM | KD [2]: 19.3 ± 2.4 µM | KD [3]: 4.8 ± 1.4 µM

NC(Cc1ccc(F)cc1)C(=O)O (racemic)
ligand-induced cleavage ([3]; 100 μM, fraction cleaved 0.235 (L-Phe 0.325)): yes

N[C@H](Cc1ccccc1)C(=O)O
ligand-induced cleavage ([3]; tested at 100 μM, no cleavage induced): no

N[C@@H](Cc1ccc(O)cc1)C(=O)O
KD [1]: 71.6 ± 9.8 µM | KD [2]: 118.9 ± 11.7 µM | KD [3]: 6.8 ± 0.7 µM
